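48-hour exposure; five concentrations; linearly interpolated endpoints. GI50 marks 50% less growth. TGI: total growth inhibition.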
What was measured:
Test in all cases: DTP human tumour cell line panel, 48 h
[1] = system: SK-MEL-28 melanoma
[2] = system: KM12 colon
[3] = system: CCRF-CEM leukemia
[4] = system: SN12C renal
[5] = system: CAKI-1 renal
[6] = system: SNB-75 CNS
[7] = system: NCI-H226 lung
[8] = system: TK-10 renal
[9] = system: HL-60(TB) leukemia
[10] = system: K-562 leukemia
[11] = system: HCT-116 colon
[12] = system: OVCAR-4 ovarian
[13] = system: HT29 colon
[14] = system: SF-268 CNS
[15] = system: RPMI-8226 leukemia
[16] = system: RXF 393 renal
[17] = system: MDA-MB-231 breast
[18] = system: 786-0 renal
[19] = system: SNB-19 CNS
[20] = system: MOLT-4 leukemia
[21] = system: MCF7 breast
[22] = system: NCI-H23 lung
[23] = system: SF-539 CNS
[24] = system: M14 melanoma
[25] = system: UACC-257 melanoma
[26] = system: SR leukemia
[27] = system: BT-549 breast

For `FC(F)(F)c1ccc(-c2cnc(Cl)nc2NC2CCCCCC2)cc1`, the TGI [1] was greater than 100 µM, the GI50 [2] was 97.1 µM and the TGI [2] was greater than 100 µM. It also gave a GI50 [3] of 27.9 µM, a TGI [3] greater than 100 µM and a GI50 [4] greater than 100 µM. The TGI [4] was greater than 100 µM, the GI50 [5] was 57.4 µM and the TGI [5] was greater than 100 µM. For the same compound, the GI50 [6] was 80.6 µM, the TGI [6] was greater than 100 µM and the GI50 [7] was greater than 100 µM. For the same compound, the TGI [7] was greater than 100 µM, the GI50 [8] was greater than 100 µM and the TGI [8] was greater than 100 µM. It also gave a GI50 [9] of 24.9 µM, a TGI [9] greater than 100 µM and a GI50 [10] of 54.1 µM. For the same compound, the TGI [10] was greater than 100 µM, the GI50 [11] was 35.5 µM and the TGI [11] was greater than 100 µM. For the same compound, the GI50 [12] was 38.7 µM, the TGI [12] was greater than 100 µM and the GI50 [13] was 71.1 µM. For the same compound, the TGI [13] was greater than 100 µM, the GI50 [14] was greater than 100 µM and the TGI [14] was greater than 100 µM. It also gave a GI50 [15] of 8.03 µM, a TGI [15] greater than 100 µM and a GI50 [16] greater than 100 µM. The TGI [16] was greater than 100 µM, the GI50 [17] was 36.4 µM and the TGI [17] was greater than 100 µM. For the same compound, the GI50 [18] was greater than 100 µM, the TGI [18] was greater than 100 µM and the GI50 [19] was greater than 100 µM. The TGI [19] was greater than 100 µM, the GI50 [20] was 32.7 µM and the TGI [20] was greater than 100 µM. For the same compound, the GI50 [21] was 31.2 µM, the TGI [21] was greater than 100 µM and the GI50 [22] was 61.1 µM. The TGI [22] was greater than 100 µM, the GI50 [23] was greater than 100 µM and the TGI [23] was greater than 100 µM. The GI50 [24] was greater than 100 µM, the TGI [24] was greater than 100 µM and the GI50 [25] was greater than 100 µM. The TGI [25] was greater than 100 µM, the GI50 [26] was 38.9 µM and the TGI [26] was greater than 100 µM. It also gave a GI50 [27] greater than 100 µM and a TGI [27] greater than 100 µM.

Source: PubChem BioAssay (NCI)
